The text below walks through data of ChEMBL document CHEMBL5352474, “Synthesis and in vitro antileishmanial activity of alkylene-linked nitrofurantoin-triazole hybrids” (Eur J Med Chem, 2023).

Data set [1] in a line: Selectivity index, ratio of IC50 for cytotoxicity against HEK293 cells to IC50 for antileishmanial activity against Leishmania major IR-173 promastigotes. In kind it is toxicity, cell-based. The conditions noted are these: human, read-out: Ratio IC50.
Data set [2] concerns Leishmania donovani. Nature of the data set: Antileishmanial activity against Leishmania donovani 9515 amastigote infected in human THP-1 cells assessed as static activity by measuring inhibition of parasite growth incubated for 72 hrs by resazurin dye based assay. The data set is classed as functional, organism-based. The note with it: Leishmania donovani, 9515, THP-1, 72 h. A general note: Alamar Blue is a resazurin reagent that responds to reducing activity.

A short description of data set [3]: Cytotoxicity against HEK293 cells assessed as inhibition of cell growth incubated for 48 hrs by resazurin dye based assay. The data set is classed as toxicity. The conditions noted are these: human.
Data set [4] relates to Leishmania donovani. The data set can be described thus: Antileishmanial activity against Leishmania donovani 9515 promastigotes assessed as inhibition of parasite growth incubated for 48 hrs by resazurin dye based assay. The note with it: Leishmania donovani, 9515, 48 h. The data set is classed as functional, organism-based.
The test system of data set [5] is Leishmania donovani. Nature of the data set: Leishmanicidal activity against Leishmania donovani 9515 amastigote infected in human THP-1 cells incubated for 72 hrs by resazurin dye based analysis. In kind it is functional, organism-based. The conditions noted are these: Leishmania donovani, 9515, THP-1, 72 h.
Data set [6] in a line: in vitro. The conditions noted are these: monkey, Vero cells.
Description: Selectivity index, ratio of IC50 for cytotoxicity against African green monkey Vero cells to IC50 for antileishmanial activity against Leishmania major IR-173 amastigote infected in human THP-1 cells assessed as static activity
Data set [7] is described as follows: Selectivity index, ratio of IC50 for antileishmanial activity against Leishmania major IR-173 promastigotes to IC50 for antileishmanial activity against Leishmania major IR-173 amastigote infected in human THP-1 cells assessed as static activity. The data set is classed as functional.
Data set [8] is described as follows: in vitro. The note with it: human, THP-1 cells.
Data set [9] is described as follows: in vitro. The conditions noted are these: African green monkey, Vero cells.
The nature of data set [10]: Selectivity index, ratio of IC50 for cytotoxicity against African green monkey Vero cells to IC50 for antileishmanial activity against Leishmania donovani 9515 amastigote infected in human THP-1 cells assessed as static activity. The data set is classed as toxicity, cell-based. The note with it: read-out: Ratio IC50.
In data set [11] the test system is Leishmania major. Nature of the data set: Leishmanicidal activity against Leishmania major IR-173 amastigote infected in human THP-1 cells incubated for 72 hrs by resazurin dye based analysis. The conditions noted are these: IR-173, THP-1, 72 h. The data set is classed as functional, organism-based.
For data set [12], the system named is Leishmania major. The data set can be described thus: Antileishmanial activity against Leishmania major IR-173 amastigote infected in human THP-1 cells assessed as static activity by measuring inhibition of parasite growth incubated for 72 hrs by resazurin dye based assay. In kind it is functional, organism-based. The conditions noted are these: IR-173, THP-1, 72 h.

Data set [13] has as its system Leishmania major. The data set can be described thus: Antileishmanial activity against Leishmania major IR-173 promastigotes assessed as inhibition of parasite growth incubated for 48 hrs by resazurin dye based assay. In kind it is functional, organism-based. The conditions noted are these: IR-173, 48 h.

One may read the IC50 as the midpoint of a concentration-inhibition curve. In the case of `CCCCc1cn(CCCN2C(=O)CN(/N=C/c3ccc([N+](=O)[O-])o3)C2=O)nn1`, the figures for the selectivity ratio in data set [1], in data set [6] and in data set [10] were 98, 30 and 99, respectively. Further, the IC50 in data set [2] is 1.01 µM; in [4], above 10 µM; in data set [5], above 10 µM; in data set [11], above 10 µM; in data set [12] it was 3.34 µM; in data set [13] it was 0.45 µM. The concentration for half-maximal inhibition (IC50) at 48 h is 43.9 µM in [3], 52.5 µM in data set [8] and above 100 µM in data set [9]. The “Ratio IC50” value in data set [7] turned out to be 0.2.
